Counter-ions that a name gives are not always drawn. Like-named read-outs stand apart in the source and are kept apart here.
Experiments:
hCB1R [1] = target: T1, hCB1R (Homo sapiens, UniProt P21554); experiment: Binding to the CB1 receptor ([3H]-SR141716A displacement)
Description: Binding to the CB1 Receptor:
Test compounds: The compounds (3 μl, 10 mM, 100% DMSO), pipetted into 96-well PP microtiter plates, were diluted with 27 μl of 100% DMSO (dimethyl sulfoxide). Proceeding from this solution, further 3-fold dilution steps were undertaken by transferring 10 μl in each case to a new PP microtiter plate and adding a further 20 μl of 100% DMSO. In each case 6 μl of these solutions were transferred into new 96-well PP microtiter plates and made up with 144 μl of assay buffer. The end concentrations ranged from 10 μM to 0.005 μM.
Negative control: AM 251, dissolved in assay buffer with 1% DMSO, was added to the dilution series in the microtiter plates as a control. The end concentration was 1 μM.
Blank control: assay buffer with 1% DMSO was added to the dilution series of the microtiter plates as a blank control.
Summary of the Assay Parameters:
High control: ^3H binding without addition of the compound Low control: ^3H binding in the presence of 1 μM AM 251
The values were calculated using the corrected raw data.
The values reported were obtained as average values of a double determination. The IC50 values were calculated from the measurements with the program Xlfit, formula 205. Ki values were obtained from the IC50 and Kd values utilizing the Cheng-Prusoff equation:
[formula] • Literature: Cheng, Y.-C., and Prusoff, W. H. (1973) Biochem. Pharmacol 22, 3099-3108

hCB2R = target: T2, hCB2R (Homo sapiens, UniProt P34972); experiment: In vitro functional assay with recombinant cells (FLIPR, intracellular Ca2+), CB2; assay type: cell-based; conditions: recombinant HEK293 cells expressing CB2 and G-protein Galpha16; 20 min preincubation, then reference agonist; Ca2+ change (Fluo-4)
T2 construct: expressed in transfected cells; host or cells: HEK293
T2 sequence (P34972 whole entry): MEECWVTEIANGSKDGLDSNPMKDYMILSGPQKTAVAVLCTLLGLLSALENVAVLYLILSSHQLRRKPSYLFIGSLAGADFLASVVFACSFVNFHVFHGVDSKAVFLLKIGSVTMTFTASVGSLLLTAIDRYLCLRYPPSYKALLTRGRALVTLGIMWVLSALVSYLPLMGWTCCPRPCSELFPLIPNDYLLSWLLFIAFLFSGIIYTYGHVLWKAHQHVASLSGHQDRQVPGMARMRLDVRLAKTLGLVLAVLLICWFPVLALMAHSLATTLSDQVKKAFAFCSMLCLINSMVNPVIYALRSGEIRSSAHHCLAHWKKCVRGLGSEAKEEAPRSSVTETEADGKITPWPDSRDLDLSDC
Description: (§1) In vitro functional assays with recombinant cells:
(§2) Function-testing assays were performed by means of the FLIPR technique (“Fluorometric Imaging Plate Reader”, Molecular Devices Corp.).
(§3) To this end, ligand-induced changes in the intracellular concentration of Ca^2+ in recombinant HEK293 cells, which expressed both a cannabinoid receptor (CB1 or CB2) and G-protein Galpha16, were determined. For the studies, cells were sown into 96-well microtiter plates (60 000 cells/well) and left to grow overnight. The medium was removed and the cells were incubated in buffer which contained the fluorescent dye Fluo-4. After this loading with dye, the cells were washed, test substance was added dissolved in buffer, the mixture was incubated for 20 minutes, a known cannabinoid receptor agonist as a reference agonist was added in buffer and, finally, the changes in the intracellular Ca^2+ concentration were measured in the FLIPR unit.
Results were presented as the percentage change relative to the control (0%: analogous experiment without test substance and without reference agonist, i.e. only with buffer; 100%: analogous experiment without test substance, but with reference agonist in excess), and used to calculate dose/action curves, and IC50 values were determined

hCB1R [2] = target: T1, hCB1R; experiment: In vitro functional assay with recombinant cells (FLIPR, intracellular Ca2+), CB1; assay type: cell-based; design: expressed in transfected cells; host or cells: HEK293
Description: as §1, §2, §3

[3] = CHO-K1/cannabinoid CB1 protein 2 μg/well, [3H]-SR141716A 0.5 nM, Ki from IC50 by Cheng-Prusoff, average of double determination, read-out: hCB1R, binding Ki
[4] = recombinant HEK293 cells expressing CB1 and G-protein Galpha16, 20 min preincubation, then reference agonist, Ca2+ change (Fluo-4), read-out: hCB1R: FLIPR, IC50

T1 sequence (P21554 whole entry): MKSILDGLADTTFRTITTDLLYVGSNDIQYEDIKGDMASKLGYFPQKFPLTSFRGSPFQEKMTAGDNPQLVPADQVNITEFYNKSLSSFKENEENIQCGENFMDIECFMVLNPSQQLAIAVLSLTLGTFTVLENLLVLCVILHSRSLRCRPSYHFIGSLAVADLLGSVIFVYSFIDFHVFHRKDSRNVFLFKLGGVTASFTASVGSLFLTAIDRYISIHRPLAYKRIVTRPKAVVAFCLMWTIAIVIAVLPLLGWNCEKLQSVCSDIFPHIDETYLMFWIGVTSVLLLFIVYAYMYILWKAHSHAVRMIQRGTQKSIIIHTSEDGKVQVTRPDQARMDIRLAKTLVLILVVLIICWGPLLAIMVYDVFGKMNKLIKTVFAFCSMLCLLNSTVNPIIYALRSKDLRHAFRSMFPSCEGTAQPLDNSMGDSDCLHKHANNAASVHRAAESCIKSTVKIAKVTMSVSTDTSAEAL

| SMILES | Ki (hCB1R [1]; [3]) [nM] | further results |
| --- | --- | --- |
| CCc1cccc(N2C(=O)N(Cc3ccccc3Cc3ccccc3)C(C)(C)C2=O)c1 [Example 1, 1-(2-Benzylbenzyl)-3-(3-ethylphenyl)-5,5-dimethylimidazolidine-2,4-dione] | 218 | – |
| CC1(C)C(=O)N(c2ccc(Oc3ccc(Cl)cc3)c(C(F)(F)F)c2)C(=O)N1Cc1ccccc1Cc1ccccc1 [Example 101, 1-(2-Benzylbenzyl)-3-[4-(4-chlorophenoxy)-3-trifluoromethylphenyl]-5,5-dimethylimidazolidine-2,4-dione] | 99 | – |
| CC1(C)C(=O)N(c2ccc(F)c(F)c2)C(=O)N1Cc1ccccc1Cc1ccccc1 [Example 41] | 188 | – |
| CC1(C)C(=O)N(c2cccc(SC(F)(F)F)c2)C(=O)N1Cc1ccccc1Cc1ccccc1 [Example 13] | 66 | – |
| CC1(C)C(=O)N(c2ccc(C#N)c(C(F)(F)F)c2)C(=O)N1Cc1ccc(F)cc1C(=O)c1ccc(C(F)(F)F)cc1 [Example 155, 4-{3-[4-Fluoro-2-(4-trifluoromethylbenzoyl)-benzyl]-4,4-dimethyl-2,5-dioxoimidazolidin-1-yl}-2-trifluoromethylbenzonitrile] | 69 | – |
| CC1(C)C(=O)N(c2cc(C(F)(F)F)ccc2F)C(=O)N1Cc1ccccc1Cc1ccccc1 [Example 11] | 132 | – |
| CC1(C)C(=O)N(c2ccc(C#N)c(C(F)(F)F)c2)C(=O)N1Cc1ccc(C(=O)c2ccccc2)cc1 [Example 132, 4-[3-(4-benzoylbenzyl)-4,4-dimethyl-2,5-dioxo-imidazolidin-1-yl]-2-trifluoromethylbenzonitrile] | – | IC50 (hCB2R): > 10000 nM; Ki (hCB1R [1]): 74 nM; IC50 (hCB1R [2]; [4]): 103 nM |
| CC1(C)C(=O)N(c2ccc(F)c(C(F)(F)F)c2)C(=O)N1Cc1ccccc1Cc1ccccc1 [Example 79] | – | IC50 (hCB2R): > 10000 nM; Ki (hCB1R [1]): 44 nM; IC50 (hCB1R [2]; [4]): 103 nM |
| COC(=O)c1ccc(C(=O)c2ccc(CN3C(=O)N(c4ccc(F)c(C(F)(F)F)c4)C(=O)C3(C)C)cc2)cc1 [Example 151, Methyl 4-{4-[3-(4-fluoro-3-trifluoromethylphenyl)-5,5-dimethyl-2,4-dioxo-imidazolidin-1-ylmethyl]-benzoyl}benzoate] | 62 | – |
| CC1(C)C(=O)N(c2ccnc(C(F)(F)F)c2)C(=O)N1Cc1ccccc1Cc1ccccc1 [Example 119, 1-(2-Benzylbenzyl)-5,5-dimethyl-3-(2-trifluoromethylpyridin-4-yl)imidazolidine-2,4-dione; hydrochloride] | 23 | IC50 (hCB1R [2]): 97 nM |
| CC1(C)C(=O)N(c2ccc(C#N)c(C(F)(F)F)c2)C(=O)N1Cc1ccccc1Cc1ccccc1 [Example 88, 4-[3-(2-benzylbenzyl)-4,4-dimethyl-2,5-dioxoimidazolidin-1-yl]-2-trifluoromethylbenzonitrile] | – | IC50 (hCB2R): > 30000 nM; Ki (hCB1R [1]): 2 nM; IC50 (hCB1R [2]): 13 nM |
| CC1(C)C(=O)N(c2cccc(C(F)(F)F)c2)C(=O)N1Cc1ccccc1Cc1ccccc1 [Example 7] | 95 | – |
| CC1(C)C(=O)N(c2ccc(C#N)c(C(F)(F)F)c2)C(=O)N1Cc1ccc(F)cc1C(=O)c1ccc(Cl)cc1 [Example 139, 4-{3-[2-(4-Chloro-benzoyl)-4-fluorobenzyl]-4,4-dimethyl-2,5-dioxo-imidazolidin-1-yl}-2-trifluoromethylbenzonitrile] | 77 | – |
| CC(C)(C)c1cc(N2C(=O)N(Cc3ccccc3Cc3ccccc3)C(C)(C)C2=O)ccc1C#N [Example 118, 4-[3-(2-Benzylbenzyl)-4,4-dimethyl-2,5-dioxo-imidazolidin-1-yl]-2-tert-butylbenzonitrile] | – | IC50 (hCB2R): > 10000 nM; Ki (hCB1R [1]): 5 nM; IC50 (hCB1R [2]; [4]): 114 nM |
| CC1(C)C(=O)N(c2ccc(C#N)c(C(F)(F)F)c2)C(=O)N1Cc1ccc(F)cc1C(=O)c1ccc(C#N)cc1 [Example 150, 4-{3-[2-(4-Cyano-benzoyl)-4-fluorobenzyl]-4,4-dimethyl-2,5-dioxo-imidazolidin-1-yl}-2-tri-fluoromethylbenzonitrile] | 18 | IC50 (hCB1R [2]): 11 nM |
| N#Cc1ccc(N2C(=O)N(Cc3ccccc3Cc3ccccc3)C3(CCCCC3)C2=O)cc1C(F)(F)F [Example 114, 4-[1-(2-Benzylbenzyl)-2,4-dioxo-1,3-diazaspiro[4.5]dec-3-yl]-2-trifluoromethylbenzonitrile] | 63 | – |
| CC1(C)C(=O)N(c2cccc(C#N)c2)C(=O)N1Cc1ccccc1Cc1ccccc1 [Example 16] | 174 | – |
| CC1(C)C(=O)N(c2ccnc(Cl)c2)C(=O)N1Cc1ccccc1Cc1ccccc1 [Example 117, 1-(2-Benzylbenzyl)-3-(2-chloropyridin-4-yl)-5,5-dimethylimidazolidine-2,4-dione] | 94 | – |
| N#Cc1ccc(N2C(=O)N(Cc3ccccc3Cc3ccccc3)C3(CCCCCC3)C2=O)cc1C(F)(F)F [Example 116, 4-[1-(2-Benzylbenzyl)-2,4-dioxo-1,3-diazaspiro[4.6]undec-3-yl]-2-trifluoromethylbenzonitrile] | 26 | – |
| CC1(C)C(=O)N(c2cc(Cl)cc(Cl)c2)C(=O)N1Cc1ccccc1Cc1ccccc1 [Example 65] | 153 | – |
| CC1(C)C(=O)N(c2ccc(Cl)c(Cl)c2)C(=O)N1Cc1ccccc1Cc1ccccc1 [Example 64] | 97 | – |
| N#Cc1ccc(N2C(=O)N(Cc3ccccc3Cc3ccccc3)C3(CCC3)C2=O)cc1C(F)(F)F [Example 107, 4-[5-(2-Benzylbenzyl)-6,8-dioxo-5,7-diazaspiro[3.4]-oct-7-yl]-2-trifluoro-methylbenzonitrile] | – | IC50 (hCB2R): > 10000 nM; Ki (hCB1R [1]): 12 nM; IC50 (hCB1R [2]): 43 nM |
| COC(=O)c1ccc(Cc2ccccc2CN2C(=O)N(c3ccc(F)c(C(F)(F)F)c3)C(=O)C2(C)C)cc1 [Example 144, methyl 4-{2-[3-(4-fluoro-3-trifluoromethylphenyl)-5,5-dimethyl-2,4-dioxoimidazolidin-1-ylmethyl]benzyl}benzoate] | 37 | – |
| CC1(C)C(=O)N(c2ccc(C#N)nc2)C(=O)N1Cc1ccccc1Cc1ccccc1 [Example 123, 543-(2-Benzylbenzyl)-4,4-dimethyl-2,5-dioxo-imidazolidin-1-yl]pyridine-2-carbonitrile; hydrochloride] | 140 | – |
| COC(=O)c1ccc(Cc2ccccc2CN2C(=O)N(c3ccc(C#N)c(C(F)(F)F)c3)C(=O)C2(C)C)cc1 [Example 143, methyl 4-{2-[3-(4-cyano-3-trifluoromethylphenyl)-5,5-dimethyl-2,4-dioxoimidazolidin-1-ylmethyl]benzyl}benzoate] | 13 | IC50 (hCB1R [2]): 65 nM |
| CC1(C)C(=O)N(c2ccc(C#N)c(S(F)(F)(F)(F)F)c2)C(=O)N1Cc1ccccc1Cc1ccccc1 [Example 102, 4-[3-(2-Benzylbenzyl)-4,4-dimethyl-2,5-dioxo-imidazolidin-1-yl]-2-pentafluorosulfanyl-benzonitrile] | 19 | IC50 (hCB1R [2]): 45 nM |
| CSc1cccc(N2C(=O)N(Cc3ccccc3Cc3ccccc3)C(C)(C)C2=O)c1 [Example 4] | 217 | – |
| CN1CCC2(CC1)C(=O)N(c1ccc(C#N)c(C(F)(F)F)c1)C(=O)N2Cc1ccccc1Cc1ccccc1 [Example 111, 4-[1-(2-Benzylbenzyl)-8-methyl-2,4-dioxo-1,3,8-triazaspiro[4.5]dec-3-yl]-2-trifluoromethylbenzo-nitrile; trifluoroacetate] | 61 | – |
| N#Cc1ccc(N2C(=O)N(Cc3ccccc3Cc3ccccc3)C3(CCCC3)C2=O)cc1C(F)(F)F [Example 106, 4-[1-(2-Benzylbenzyl)-2,4-dioxo-1,3-diazaspiro[4.4]-non-3-yl]-2-trifluoro-methylbenzonitrile] | – | IC50 (hCB2R): > 10000 nM; Ki (hCB1R [1]): 11 nM; IC50 (hCB1R [2]): 76 nM |

Source: patent US20110112097A1, “Substituted imidazoline-2,4-diones, process for preparation thereof, medicaments comprising these compounds and use thereof” (SANOFI-AVENTIS, priority 2008, published 2011)
